Results as given in ChEMBL document CHEMBL4418303, “1-cyano-pyrrolidine derivatives as inhibitors of usp30” (2017).
pIC50: −log10 of the molar value.

Molecular target: T1, Ubiquitin carboxyl-terminal hydrolase 30 (Homo sapiens, UniProt Q70CQ3)
T1 sequence (Q70CQ3 whole entry): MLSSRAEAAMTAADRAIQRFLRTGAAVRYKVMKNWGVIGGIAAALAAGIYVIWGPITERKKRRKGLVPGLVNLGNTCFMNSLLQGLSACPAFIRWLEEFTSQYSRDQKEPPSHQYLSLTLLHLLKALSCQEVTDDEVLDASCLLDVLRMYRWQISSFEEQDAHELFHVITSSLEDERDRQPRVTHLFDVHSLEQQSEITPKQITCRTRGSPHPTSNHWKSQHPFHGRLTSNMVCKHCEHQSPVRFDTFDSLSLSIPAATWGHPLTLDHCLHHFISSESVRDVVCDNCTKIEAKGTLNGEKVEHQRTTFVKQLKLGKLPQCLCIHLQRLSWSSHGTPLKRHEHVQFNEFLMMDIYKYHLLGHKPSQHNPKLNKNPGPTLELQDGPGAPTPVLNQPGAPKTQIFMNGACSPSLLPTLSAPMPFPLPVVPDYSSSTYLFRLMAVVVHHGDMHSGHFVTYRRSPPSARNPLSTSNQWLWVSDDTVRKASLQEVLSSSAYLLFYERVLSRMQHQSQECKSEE
Assay: Inhibition of untagged human USP30 catalytic domain (57 to 517 residues) expressed in Escherichia coli using TAMRA labeled ubiquitin peptide as substrate preincubated for 30 min followed by substrate addition and measured after 2 hrs by fluorescence polarization assay

pIC50	SMILES
5.00 to 6.00	CN1c2ccccc2CN([C@@H]2CCN(C#N)C2)S1(=O)=O
5.00 to 6.00	N#CN1CC[C@@H](N2Cc3ccnc(N4CCOCC4)c3NS2(=O)=O)C1
6.00 to 7.00	CN1c2ccc(-c3ccccc3)cc2CN([C@@H]2CCN(C#N)C2)S1(=O)=O
